The structures appear in SMILES notation. pKd: −log10 of the molar value. “And” between values parts separate entries of the source, which are not always exact repeats. Equal entries are not always repeated.

The target in this test is Biotinylated ASGPR (ASGPr H1 wild type) (Homo sapiens (Human), UniProt P07306). In words: Surface plasmon resonance (SPR) binding assay. The note with it: Biacore 3000, 25° C, immobilized biotinylated ASGPR, each run separately reported or n and standard deviation noted, steady state fit for compounds and single conjugates, kinetic fit for multimeric conjugates. As for the experimental part: Preparation of Biotinylated ASGPR:
ASGPr H1 wild type was expressed as an insoluble inclusion body (IB) in E. coli. The cell pellet was re-suspended in TBS buffer pH 8.0 with 0.1 mg/mL lysozyme+25 microg/mL DNase+10 microg/mL RNase+10 mM MgCl2 and stirred on ice until well blended. The mixture was passed through a microfluidizer twice and centrifuged 30 minutes at 30,000×g. The resultant IB pellet was washed with TBS buffer pH 8.0+3M urea and centrifuged and this process was repeated three additional times with water. The IB pellet was
solubilized in 10 mM Tris+8M urea+100 mM β-mercaptoethanol (pH 8.5), stirred for approximately 20 minutes, then centrifuged to discard any precipitate. For the following manipulations, “buffer T” refers to 20 mM Tris+0.5 M NaCl+25 mM CaCl2. The supernatant was diluted to approximately 0.5 mg/mL in buffer T+2 mM β-mercaptoethanol+8M urea (pH 8.0), then dialysed vs. 8-10× excess volume of buffer T+2 mM β-mercaptoethanol+2 M urea (pH 8.0) overnight at 4° C. Dialysis was repeated in buffer T+1 mM β-mercaptoethanol+1 M urea (pH 8.0) for approximately 24 h at 4° C. with several volume changes with a final dialysis vs. buffer T+5 mM GSH+1 mM GSSG (pH 7.5) with 3 volume changes. The resulting sample was centrifuged and the supernatant was loaded onto an N-acetyl-D-galactosamine agarose packed Pharmacia XK 26 column, equilibrated in buffer T+2 mM TCEP (pH 8.0). The column was washed with this buffer until baseline was re-established. The bound protein was eluted with 20 mM Tris+0.5 M NaCl+2 mM TCEP+2 mM EDTA (pH 8.0). The final yield was approximately 50 mg from 5 L (70 wgm.) E. coli cell pellet. While BSA has one cysteine (Cys34) not engaged in disulfide bonding, this thiol group is often blocked as a mixed disulfide with small thiols such as cysteine, or as the sulfenic acid by aerobic oxidation. […] Mild disulfide reduction conditions were chosen so as not to disrupt buried intra-strand (solvent inaccessible) crosslinks. Thus, immediately prior to biotinylation, the ASGPR sample was first incubated with 1 mM TCEP to ensure that the sample contained a single free thiol. The protein was reacted with a 19-fold molar excess of Pierce Maleimide-PEG2-biotin reagent in PBS overnight at 4° C. Excess biotin was removed from the sample using either PD-10 columns (GE Healthcare) or Zeba Spin Desalting columns (Thermo/Pierce) using manufacturer protocols. LC-MS analysis of the product verified the presence of a single mass with addition of 525 amu consistent with the molecular weight of the maleimide adduct. […] No such outcomes were observed. […] SPR Binding Measurements:
All SPR measurements with compounds were performed using a Biacore 3000 (GE Healthcare) at 25° C. Biotinylated ASGPR was immobilized typically at 2000-3000 resonance units (Ru) using either SA sensor chips (GE Healthcare) or custom sensor chips with Neutravidin (Pierce Biochemical) immobilized by standard amine coupling to CM5 sensor chips (GE Healthcare). The running buffer was HBS (10 mM HEPES, 150 mM NaCl), 20 mM CaCl2, 0.01% p20, 3% DMSO or 50 mM tris, 150 mM NaCl, 50 mM CaCl2), 0.01% p20, 3% DMSO pH 7.5. Compounds were diluted into running buffer at a concentration of 900 uM and serially diluted 3 fold to 3.7 uM. Compound solutions were injected at 50 ul/min for 1 min followed by a 1 min dissociation in duplicate for each concentration. For the multimeric conjugates (dimers, trimers), the conjugates were diluted in running buffer to concentrations of 100 nM or 10 nM and serially diluted. Conjugates were injected for 2 min and off rates were detected for 300 or 600 sec. After completion of off phase data the compounds were displaced using an injection of 900 uM GalNAc returning the receptor surface to the free state. All data was processed using Scrubber2 (Biologic Software, Inc.) to zero, align, reference and correct for excluded volume effects. […]
A general note: SPR reads the build-up and loss of mass on a sensor chip optically.

Biotinylated ASGPR (ASGPr H1 wild type), sequence (P07306 161-278): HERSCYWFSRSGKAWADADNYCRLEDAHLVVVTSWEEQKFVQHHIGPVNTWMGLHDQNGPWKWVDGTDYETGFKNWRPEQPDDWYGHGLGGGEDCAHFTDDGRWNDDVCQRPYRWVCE

As a reminder, the pKd is the Kd on a negative log10 scale, so that one unit is a factor of ten. A low value points to a high Kd. `[N-]=[N+]=N[C@H]1[C@H]2OC[C@](CO)(O2)[C@H](O)[C@@H]1O` [Compound 1, (1S,2R,3R,4R,5S)-4-azido-1-(hydroxymethyl)-6,8-dioxabicyclo[3.2.1]octane-2,3-diol] gave a pKd of 5.05.
In the case of `CC(=O)N[C@H]1[C@H]2OC[C@](CO)(O2)[C@H](O)[C@@H]1O` [Compound 3, N-((1S,2R,3R,4R,5S)-2,3-dihydroxy-1-(hydroxymethyl)-6,8-dioxabicyclo[3.2.1]octan-4-yl)acetamide], the pKd is 5.14.
Same read-out and setting: under `CCOC[C@@]12CO[C@@H](O1)[C@H](NC(C)=O)[C@@H](O)[C@H]2O` [Compound 17, N-[(1S,2R,3R,4R,5S)-1-(ethoxymethyl)-2,3-dihydroxy-6,8-dioxabicyclo[3.2.1]oct-4-yl]acetamide] stands 5.28 and 5.47 and 5.59; under `CCCOC[C@@]12CO[C@@H](O1)[C@H](NC(C)=O)[C@@H](O)[C@H]2O` [Compound 18, N-[(1S,2R,3R,4R,5S)-2,3-dihydroxy-1-(propoxymethyl)-6,8-dioxabicyclo[3.2.1]oct-4-yl]acetamide], 5.55 and 5.42 and 5.51 and 5.64.
On the same count and under the same terms, the same measure for `CCCCOC[C@@]12CO[C@@H](O1)[C@H](NC(C)=O)[C@@H](O)[C@H]2O` [Compound 19, N-[(1S,2R,3R,4R,5S)-1-(butoxymethyl)-2,3-dihydroxy-6,8-dioxabicyclo[3.2.1]oct-4-yl]acetamide]: 5.48 and 5.49 and 5.11.
As to `CCCCCOC[C@@]12CO[C@@H](O1)[C@H](NC(C)=O)[C@@H](O)[C@H]2O` [Compound 20, N-{(1S,2R,3R,4R,5S)-2,3-dihydroxy-1-[(pentyloxy)methyl]-6,8-dioxabicyclo[3.2.1]oct-4-yl}acetamide], the pKd was 5.66 and 5.42 and 5.38.
On the same count and under the same terms, the same measure for `CCCCCCOC[C@@]12CO[C@@H](O1)[C@H](NC(C)=O)[C@@H](O)[C@H]2O` [Compound 21, N-{(1S,2R,3R,4R,5S)-1-[(hexyloxy)methyl]-2,3-dihydroxy-6,8-dioxabicyclo[3.2.1]oct-4-yl}acetamide]: 5.47 and 5.74; for `COCCOCCOCCOCCOC[C@@]12CO[C@@H](O1)[C@H](NC(C)=O)[C@@H](O)[C@H]2O` [Compound 22, N-[(1S,2R,3R,4R,5S)-2,3-dihydroxy-1-(2,5,8,11,14-pentaoxapentadec-1-yl)-6,8-dioxabicyclo[3.2.1]oct-4-yl]acetamide]: 5.26 and 5.14 and 5.17.
A word on the Kd: it is the constant that tells how readily two partners part at equilibrium. Turning to `O=C(N[C@H]1[C@H]2OC[C@](CO)(O2)[C@H](O)[C@@H]1O)C(F)(F)F` [Compound 24, N-[(1S,2R,3R,4R,5S)-2,3-dihydroxy-1-(hydroxymethyl)-6,8-dioxabicyclo[3.2.1]oct-4-yl]-2,2,2-trifluoroacetamide], the Kd was 1.1 µM and 2 µM and 2.3 µM and 1.4 µM (2×) and 700 nM and 800 nM and 1.6 µM.
Consider `CCC(=O)N[C@H]1[C@H]2OC[C@](CO)(O2)[C@H](O)[C@@H]1O` [Compound 25, N-[(1S,2R,3R,4R,5S)-2,3-dihydroxy-1-(hydroxymethyl)-6,8-dioxabicyclo[3.2.1]oct-4-yl]propanamide], for which the negative logarithm of the Kd (pKd) was 5.66 and 5.52 and 5.57 and 5.49 and 5.37.
On the same count and under the same terms, under `CS(=O)(=O)N[C@H]1[C@H]2OC[C@](CO)(O2)[C@H](O)[C@@H]1O` [Compound 26, N-[(1S,2R,3R,4R,5S)-2,3-dihydroxy-1-(hydroxymethyl)-6,8-dioxabicyclo[3.2.1]oct-4-yl]methanesulfonamide] stands 4.22 and 4.02 and 3.85 and 3.96 and 3.83 and 3.93; under `O=C(N[C@H]1[C@H]2OC[C@](CO)(O2)[C@H](O)[C@@H]1O)C(F)F` [Compound 27, N-[(1S,2R,3R,4R,5S)-2,3-dihydroxy-1-(hydroxymethyl)-6,8-dioxabicyclo[3.2.1]oct-4-yl]-2,2-difluoroacetamide], 6.15 and 5.72 and 5.92 and 6.00 and 5.82 and 6.30.
In the case of `O=C(CC(F)(F)F)N[C@H]1[C@H]2OC[C@](CO)(O2)[C@H](O)[C@@H]1O` [Compound 28, N-[(1S,2R,3R,4R,5S)-2,3-dihydroxy-1-(hydroxymethyl)-6,8-dioxabicyclo[3.2.1]oct-4-yl]-3,3,3-trifluoropropanamide], the negative logarithm of the Kd (pKd) is 5.92 and 5.74 and 5.68 and 5.85 and 5.62 and 5.54.
Same read-out and setting: under `CC(=O)N(C)[C@H]1[C@H]2OC[C@](CO)(O2)[C@H](O)[C@@H]1O` [Compound 29, N-[(1S,2R,3R,4R,5S)-2,3-dihydroxy-1-(hydroxymethyl)-6,8-dioxabicyclo[3.2.1]oct-4-yl]-N-methylacetamide] stands 5.16 and 4.94 and 5.06 and 4.80 and 4.93 and 5.19.
The same measure, in the same setting: under `CN([C@H]1[C@H]2OC[C@](CO)(O2)[C@H](O)[C@@H]1O)S(C)(=O)=O` [Compound 30, N-[(1S,2R,3R,4R,5S)-2,3-dihydroxy-1-(hydroxymethyl)-6,8-dioxabicyclo[3.2.1]oct-4-yl]-N-methylmethanesulfonamide] stands 3.96 and 4.08 and 3.68 and 3.62 and 3.88 and 3.72; under `CN(C(=O)OC(C)(C)C)[C@H]1[C@H]2OC[C@](CO)(O2)[C@H](O)[C@@H]1O` [Compound 31, tert-butyl [(1S,2R,3R,4R,5S)-2,3-dihydroxy-1-(hydroxymethyl)-6,8-dioxabicyclo[3.2.1]oct-4-yl]methylcarbamate], 4.85 and 4.97 and 4.81 and 4.76; under `CO[C@H]1OC(CO)(CO)[C@H](O)[C@H](O)[C@H]1NC(C)=O` [II-b], 3.70 and 3.62 and 3.59 and 3.52.

Source of the values: patent US10376531B2, “Substituted-6,8-dioxabicyclo[3.2.1]octane-2,3-diol compounds as targeting agents of ASGPR” (Pfizer Inc., priority 2014, dated 2019).
